Source: patent US5484803A, “Transcutaneous in vivo activation of photosensitive agents in blood” (priority 1995, dated 1996)

Legend:
mouse blood = assay: Blood parameters two weeks after treatment (Coulter Counter); type: in vivo, Balb/c mice; conditions: for HB (hemoglobin) / Hct (hematocrit) / MCV / PLT (platelet count) / RBC / WBC: 2 weeks
Protocol: Blood Tests: Blood was drawn into syringes containing 50 μl of heparin (1000 units/ml saline). Blood samples (0.45 ml) from at least 1 mouse per time point were sent to the Diagnostic Laboratory at the University Hospital, University of British Columbia site, for analysis by a Coulter Counter. Blood morphology was determined on blood films prepared from selected samples by a laboratory technologist.
Six Balb/c mice (22±1 g weight) were prepared as described above. Five mice were injected twice (24 hour interval) with BPD from DMSO stock (not liposomal BPD) and exposed to light 1 hour after the injection. One mouse was not injected but was exposed to light (light-only control). During the first treatment the mice were injected with 15 μg BPD/mouse in 200 μl of PBS. During the second treatment the mice were injected with 20 μg BPD/mouse (0.9 mg/kg). A single mouse was used as a control for both treatments.
Immediately post-injection (on both occasions) the animals were kept for 1 hour in the dark and then were placed in individual plastic containers (9×4×5 cm), which were placed in the light box and exposed to light. The individual mice were removed from the light box at different intervals: 15, 30, 45, 60 and 75 min, respectively. The light doses delivered at the surface of the skin were 27, 54, 81, 108 and 135 J/cm^2, respectively. On the second occasion the same light doses were used; however, mice receiving higher light doses on day 1 received lower doses on day 2. The control mouse was exposed to light for 60 min on both occasions. During light exposure, the mice were constantly observed for signs of discomfort or itching. After the second light exposure, the mice were observed daily for a period of 2 weeks for appearance of the skin and general pattern of behavior.
Two weeks post-treatment blood samples were obtained from each mouse by a heart puncture, under halothane anesthesia. Then the mice were sacrificed and autopsied. Their spleen, liver and kidneys were weighed.

[1] = In vitro photodegradation of BPD in mouse blood; type: physicochemical; conditions: for photodegraded BPD, Dose / Photodegraded BPD: in vitro
Protocol: (§1) Determination of BPD Concentration in Plasma: Plasma samples were obtained by centrifugation of blood collected from mice and stored frozen at -20° C. until assessment. The concentration of BPD in the samples was determined by fluorometry using a Jasco Model FP-770 (Japan Spectroscopic Co.) spectrofluorometer and a microcuvette (Far UV Quartz Cell, Starna Cells Inc.). Excitation and emission wavelengths were 439 and 699 nm, respectively. Plasma samples were diluted 20-fold with PBS containing 1% Triton® X-100 immediately before fluorescence was determined. BPD standards were prepared in 5% mouse plasma in PBS with 1% Triton® X-100. Under these conditions the relationship between the concentration of BPD and units of fluorescence was linear (correlation coefficient >0.99) for concentrations between 0.1 ng/ml and 1 μg/ml. The limit of detection was below 0.1 ng/ml sample which corresponded to 2 ng/ml plasma. […] The 699 nm fluorescence peak of BPD was virtually free from any interference.
In order to assess the amount of light penetrating the tissues, in vitro experiments with mouse blood were carried out. The same light source was used, therefore the spectrum of light was the same. The light doses in this experiment were selected to mimic the doses in the in vivo experiments.
Liposomal BPD was added to freshly obtained heparinized mouse blood to achieve a concentration of 1 μg/ml, following which […] aliquots of blood were dispensed into 35 mm diameter petri dishes, which were placed in the light box and exposed to red light. The dishes were irradiated in the light box from below only. The intensity of light was 35 mW/cm^2. Three different light doses, entailing exposure of 30 min, 1 hour and 1.5-hour, were 63, 126 and 189 J/cm^2, respectively. Duplicate dishes were kept covered with aluminum foil. Immediately following light exposure, the blood was collected from the dishes. Then the plasma was separated by centrifugation. The control unexposed samples were processed at time points corresponding to the light exposed samples.
The concentration of BPD in plasma separated from light-exposed and unexposed blood was determined by fluorescence. About 51-83% of BPD was degraded by the ranges of light doses used.

[2] = BPD concentration in plasma of mice injected with P815 cells; type: in vivo, DBA/2 mice; conditions: for BPD in Plasma: DBA/2 mice injected with P815 cells; for BPD in Plasma, % of dark control: P815
Protocol: as §1
(§2) Male mature DBA/2 and Balb/c mice were injected intravenously with P815 and L1210 cells, respectively, preincubated for 1 hour with BPD (liposomal) at 100 ng/ml. Immediately before animal injection, an additional 2 μg of BPD was added to the syringes containing cells. […] One group of mice (shaved and depilated) was exposed immediately to red light (600-900 nm) in the light box for 1.5 hours (162 J/cm^2); the other group was kept in the dark as the control.
(§3) Immediately after exposure to light, blood samples were obtained by a heart puncture under halothane anesthesia. The concentration of BPD in plasma of light-exposed and control mice was determined by fluorescence. The number of clonogenic tumor cells in mouse blood was determined by culturing blood samples in culture medium supplemented with 10% bovine serum, using a limiting dilution assay protocol.

Red blood cells = conditions: after the virucidal treatment; cited from earlier work
[3] = BPD concentration in plasma of mice injected with L1210 cells; type: in vivo, Balb/c mice; conditions: for BPD Concentration in Plasma: Balb/c mice injected with L1210 cells; for BPD Concentration in Plasma, % of dark control: L1210
Protocol: as §1, §2, §3

[4] = mouse 1, light 27 then 135 J/cm^2
[5] = mouse 2, light 54 then 108 J/cm^2
[6] = mouse 3, light 81 then 81 J/cm^2
[7] = mouse 4, light 108 then 54 J/cm^2
[8] = mouse 5, light 135 then 27 J/cm^2

## benzoprophyrin derivative monoacid ring A [BPD]
Mouse blood; [4]
  HB (hemoglobin): 122 g/L
  Hct (hematocrit): 0.352
  MCV: 49.5 fL
  PLT (platelet count): 328 10^6 /ml
  RBC: 7.11 10^9 /ml
  WBC: 4.0 10^6 /ml
Mouse blood; [5]
  HB (hemoglobin): 126 g/L
  Hct (hematocrit): 0.382
  MCV: 49.2 fL
  PLT (platelet count): 274 10^6 /ml
  RBC: 7.76 10^9 /ml
Mouse blood; mouse 2, light 54 then 108 J/cm^2, platelet aggregate may contribute
  WBC: 14.7 10^6 /ml
Mouse blood; [6]
  HB (hemoglobin): 124 g/L
  Hct (hematocrit): 0.365
  MCV: 48.9 fL
  PLT (platelet count): 119 10^6 /ml
  RBC: 7.46 10^9 /ml
  WBC: 8.2 10^6 /ml
Mouse blood; [7]
  HB (hemoglobin): 123 g/L
  Hct (hematocrit): 0.364
  MCV: 47.6 fL
  PLT (platelet count): 438 10^6 /ml
  RBC: 7.65 10^9 /ml
  WBC: 7.6 10^6 /ml
Mouse blood; [8]
  HB (hemoglobin): 108 g/L
  Hct (hematocrit): 0.316
  MCV: 48.8 fL
  PLT (platelet count): 134 10^6 /ml
  RBC: 6.47 10^9 /ml
  WBC: 2.9 10^6 /ml
Mouse blood; two weeks post-treatment
  all blood values (Tables 3 and 4): within normal ranges
[1]; 0 h, no light, BPD 1 μg/ml blood
  BPD concentration in plasma separated from blood: 0.760 µg/mL
[1]; 1 1/2 h, 189 J/cm^2
  BPD concentration in plasma separated from blood: 0.144 µg/mL
[1]; 1 1/2 h, no light
  BPD concentration in plasma separated from blood: 0.830 µg/mL
[1]; 1/2 h, 63 J/cm^2
  BPD concentration in plasma separated from blood: 0.394 µg/mL
[1]; 1/2 h, no light
  BPD concentration in plasma separated from blood: 0.806 µg/mL
[1]; 63-189 J/cm^2, about
  BPD degraded in vitro: 51-83%
[1]; 1 h, 126 J/cm^2
  BPD concentration in plasma separated from blood: 0.220 µg/mL
[1]; 1 h, no light
  BPD concentration in plasma separated from blood: 0.810 µg/mL
[1]; 63 J/cm^2
  photodegraded BPD, Dose: 0.412 µg/mL
[1]; 63 J/cm^2, 1/2 h, 30 min
  Photodegraded BPD: 51%
[1]; 126 J/cm^2
  photodegraded BPD, Dose: 0.590 µg/mL
[1]; 126 J/cm^2, 1 h
  Photodegraded BPD: 73%
[1]; 189 J/cm^2
  photodegraded BPD, Dose: 0.686 µg/mL
[1]; 189 J/cm^2, 1 1/2 h, 90 min
  Photodegraded BPD: 83%
[2]; DBA/2, P815, 162 J/cm^2
  Percent photodegraded: 38%
[2]; Dark control
  BPD in Plasma: 94.09 ng/mL
  BPD in Plasma, % of dark control: 100%
[2]; Light exposed (162 J/cm^2)
  BPD in Plasma: 58.14 ng/mL
  BPD in Plasma, % of dark control: 62%
Red blood cells
  red blood cell viability: appeared viable
[3]; Balb/c, L1210, 162 J/cm^2
  Percent photodegraded: 59%
[3]; Dark control
  BPD Concentration in Plasma: 126.45 ng/mL
  BPD Concentration in Plasma, % of dark control: 100%
[3]; Light exposed (162 J/cm^2)
  BPD Concentration in Plasma: 52.23 ng/mL
  BPD Concentration in Plasma, % of dark control: 41%
